Source: the NIST ThermoML archive (doi:10.1021/acs.jced.8b00591)
± gives the expanded uncertainty stated by the source.

Legend:
[1] = 101.3 kPa, Liquid; for viscosity: Falling or rolling sphere viscometry; for mass density: Vibrating tube method
[2] = xn = mol fraction of the nth substance listed; conditions: 101.3 kPa, Liquid, x2 = 0; for viscosity: Falling or rolling sphere viscometry; for mass density: Vibrating tube method

Row | SMILES | viscosity ([1]; 288.15 K) | mass density ([1]; 288.15 K) | viscosity ([1]; 293.15 K) | mass density ([1]; 293.15 K) | viscosity ([1]; 298.15 K) | mass density ([1]; 298.15 K) | viscosity ([1]; 303.15 K) | mass density ([1]; 303.15 K) | viscosity ([1]; 308.15 K) | mass density ([1]; 308.15 K) | viscosity ([1]; 313.15 K) | mass density ([1]; 313.15 K) | viscosity ([1]; 318.15 K) | mass density ([1]; 318.15 K) | viscosity ([1]; 323.15 K) | mass density ([1]; 323.15 K) | viscosity ([1]; 328.15 K) | mass density ([1]; 328.15 K) | viscosity ([2]; 288.15 K) | mass density ([2]; 288.15 K) | further results
1 | CCCC[n+]1ccn(C)c1.O=S(=O)([N-]S(=O)(=O)C(F)(F)F)C(F)(F)F | 78.02 ± 2 mPa·s | 1445.66 ± 3.5 kg/m3 | 61.32 ± 1.4 mPa·s | 1440.84 ± 3.5 kg/m3 | 48.93 ± 1.1 mPa·s | 1436.01 ± 3.5 kg/m3 | 39.84 ± 0.88 mPa·s | 1431.21 ± 3.5 kg/m3 | 32.91 ± 0.73 mPa·s | 1426.43 ± 3.5 kg/m3 | 27.56 ± 0.61 mPa·s | 1421.66 ± 3.5 kg/m3 | 23.33 ± 0.51 mPa·s | 1416.91 ± 3.4 kg/m3 | 19.97 ± 0.44 mPa·s | 1412.17 ± 3.4 kg/m3 | 17.41 ± 0.38 mPa·s | 1407.45 ± 3.4 kg/m3 | – | – | –
2 | CCn1cc[n+](C)c1.O=S(=O)([N-]S(=O)(=O)C(F)(F)F)C(F)(F)F | 49.41 ± 1.1 mPa·s | 1528.55 ± 3.7 kg/m3 | 40.36 ± 0.89 mPa·s | 1523.47 ± 3.7 kg/m3 | 33.52 ± 0.74 mPa·s | 1518.39 ± 3.7 kg/m3 | 28.35 ± 0.62 mPa·s | 1513.34 ± 3.7 kg/m3 | 24.15 ± 0.53 mPa·s | 1508.3 ± 3.7 kg/m3 | 20.76 ± 0.46 mPa·s | 1503.28 ± 3.7 kg/m3 | 17.9 ± 0.39 mPa·s | 1498.27 ± 3.6 kg/m3 | 15.93 ± 0.35 mPa·s | 1493.28 ± 3.6 kg/m3 | 14.26 ± 0.31 mPa·s | 1488.31 ± 3.6 kg/m3 | – | – | –
3 | CCOC(=O)OCC [diethyl carbonate] | 0.871 ± 0.019 mPa·s | 980.49 ± 2.4 kg/m3 | 0.812 ± 0.018 mPa·s | 974.91 ± 2.4 kg/m3 | 0.757 ± 0.017 mPa·s | 969.3 ± 2.3 kg/m3 | 0.708 ± 0.015 mPa·s | 963.66 ± 2.3 kg/m3 | 0.664 ± 0.015 mPa·s | 958 ± 2.3 kg/m3 | 0.625 ± 0.014 mPa·s | 952.32 ± 2.3 kg/m3 | 0.589 ± 0.013 mPa·s | 946.6 ± 2.3 kg/m3 | 0.556 ± 0.012 mPa·s | 940.86 ± 2.3 kg/m3 | 0.525 ± 0.011 mPa·s | 935.08 ± 2.3 kg/m3 | – | – | –
4 | CCOC(=O)OCC [diethyl carbonate] + CCCC[n+]1ccn(C)c1.O=S(=O)([N-]S(=O)(=O)C(F)(F)F)C(F)(F)F | – | – | – | – | – | – | – | – | – | – | – | – | – | – | – | – | – | – | 0.871 ± 0.019 mPa·s | 980.49 ± 2.4 kg/m3 | viscosity ([2]; 293.15 K): 0.812 ± 0.018 mPa·s; mass density ([2]; 293.15 K): 974.91 ± 2.4 kg/m3; viscosity ([2]; 298.15 K): 0.757 ± 0.017 mPa·s; mass density ([2]; 298.15 K): 969.3 ± 2.3 kg/m3; viscosity ([2]; 303.15 K): 0.708 ± 0.015 mPa·s; mass density ([2]; 303.15 K): 963.66 ± 2.3 kg/m3; viscosity ([2]; 308.15 K): 0.664 ± 0.015 mPa·s; mass density ([2]; 308.15 K): 958 ± 2.3 kg/m3; viscosity ([2]; 313.15 K): 0.625 ± 0.014 mPa·s; mass density ([2]; 313.15 K): 952.32 ± 2.3 kg/m3; viscosity ([2]; 318.15 K): 0.589 ± 0.013 mPa·s; mass density ([2]; 318.15 K): 946.6 ± 2.3 kg/m3; viscosity ([2]; 323.15 K): 0.556 ± 0.012 mPa·s; mass density ([2]; 323.15 K): 940.86 ± 2.3 kg/m3; viscosity ([2]; 328.15 K): 0.525 ± 0.011 mPa·s; mass density ([2]; 328.15 K): 935.08 ± 2.3 kg/m3
5 | CCOC(=O)OCC [diethyl carbonate] + CCn1cc[n+](C)c1.O=S(=O)([N-]S(=O)(=O)C(F)(F)F)C(F)(F)F | – | – | – | – | – | – | – | – | – | – | – | – | – | – | – | – | – | – | 0.871 ± 0.019 mPa·s | 980.49 ± 2.4 kg/m3 | viscosity ([2]; 293.15 K): 0.812 ± 0.018 mPa·s; mass density ([2]; 293.15 K): 974.91 ± 2.4 kg/m3; viscosity ([2]; 298.15 K): 0.757 ± 0.017 mPa·s; mass density ([2]; 298.15 K): 969.3 ± 2.3 kg/m3; viscosity ([2]; 303.15 K): 0.708 ± 0.015 mPa·s; mass density ([2]; 303.15 K): 963.66 ± 2.3 kg/m3; viscosity ([2]; 308.15 K): 0.664 ± 0.015 mPa·s; mass density ([2]; 308.15 K): 958 ± 2.3 kg/m3; viscosity ([2]; 313.15 K): 0.625 ± 0.014 mPa·s; mass density ([2]; 313.15 K): 952.32 ± 2.3 kg/m3; viscosity ([2]; 318.15 K): 0.589 ± 0.013 mPa·s; mass density ([2]; 318.15 K): 946.6 ± 2.3 kg/m3; viscosity ([2]; 323.15 K): 0.556 ± 0.012 mPa·s; mass density ([2]; 323.15 K): 940.86 ± 2.3 kg/m3; viscosity ([2]; 328.15 K): 0.525 ± 0.011 mPa·s; mass density ([2]; 328.15 K): 935.08 ± 2.3 kg/m3
6 | COC(=O)OC [dimethyl carbonate] | 0.669 ± 0.015 mPa·s | 1076.39 ± 2.6 kg/m3 | 0.626 ± 0.014 mPa·s | 1069.86 ± 2.6 kg/m3 | 0.587 ± 0.013 mPa·s | 1063.27 ± 2.6 kg/m3 | 0.552 ± 0.012 mPa·s | 1056.65 ± 2.5 kg/m3 | 0.52 ± 0.011 mPa·s | 1050 ± 2.5 kg/m3 | 0.498 ± 0.011 mPa·s | 1043.29 ± 2.5 kg/m3 | 0.472 ± 0.01 mPa·s | 1036.57 ± 2.5 kg/m3 | 0.45 ± 0.01 mPa·s | 1029.83 ± 2.5 kg/m3 | 0.429 ± 0.009 mPa·s | 1023.03 ± 2.5 kg/m3 | – | – | –
7 | COC(=O)OC [dimethyl carbonate] + CCCC[n+]1ccn(C)c1.O=S(=O)([N-]S(=O)(=O)C(F)(F)F)C(F)(F)F | – | – | – | – | – | – | – | – | – | – | – | – | – | – | – | – | – | – | 0.669 ± 0.015 mPa·s | 1076.39 ± 2.6 kg/m3 | viscosity ([2]; 293.15 K): 0.626 ± 0.014 mPa·s; mass density ([2]; 293.15 K): 1069.86 ± 2.6 kg/m3; viscosity ([2]; 298.15 K): 0.587 ± 0.013 mPa·s; mass density ([2]; 298.15 K): 1063.27 ± 2.6 kg/m3; viscosity ([2]; 303.15 K): 0.552 ± 0.012 mPa·s; mass density ([2]; 303.15 K): 1056.65 ± 2.5 kg/m3; viscosity ([2]; 308.15 K): 0.52 ± 0.011 mPa·s; mass density ([2]; 308.15 K): 1050 ± 2.5 kg/m3; viscosity ([2]; 313.15 K): 0.498 ± 0.011 mPa·s; mass density ([2]; 313.15 K): 1043.29 ± 2.5 kg/m3; viscosity ([2]; 318.15 K): 0.472 ± 0.01 mPa·s; mass density ([2]; 318.15 K): 1036.57 ± 2.5 kg/m3; viscosity ([2]; 323.15 K): 0.45 ± 0.01 mPa·s; mass density ([2]; 323.15 K): 1029.83 ± 2.5 kg/m3; viscosity ([2]; 328.15 K): 0.429 ± 0.009 mPa·s; mass density ([2]; 328.15 K): 1023.03 ± 2.5 kg/m3
8 | COC(=O)OC [dimethyl carbonate] + CCn1cc[n+](C)c1.O=S(=O)([N-]S(=O)(=O)C(F)(F)F)C(F)(F)F | – | – | – | – | – | – | – | – | – | – | – | – | – | – | – | – | – | – | 0.669 ± 0.015 mPa·s | 1076.39 ± 2.6 kg/m3 | viscosity ([2]; 293.15 K): 0.626 ± 0.014 mPa·s; mass density ([2]; 293.15 K): 1069.86 ± 2.6 kg/m3; viscosity ([2]; 298.15 K): 0.587 ± 0.013 mPa·s; mass density ([2]; 298.15 K): 1063.27 ± 2.6 kg/m3; viscosity ([2]; 303.15 K): 0.552 ± 0.012 mPa·s; mass density ([2]; 303.15 K): 1056.65 ± 2.5 kg/m3; viscosity ([2]; 308.15 K): 0.52 ± 0.011 mPa·s; mass density ([2]; 308.15 K): 1050 ± 2.5 kg/m3; viscosity ([2]; 313.15 K): 0.498 ± 0.011 mPa·s; mass density ([2]; 313.15 K): 1043.29 ± 2.5 kg/m3; viscosity ([2]; 318.15 K): 0.472 ± 0.01 mPa·s; mass density ([2]; 318.15 K): 1036.57 ± 2.5 kg/m3; viscosity ([2]; 323.15 K): 0.45 ± 0.01 mPa·s; mass density ([2]; 323.15 K): 1029.83 ± 2.5 kg/m3; viscosity ([2]; 328.15 K): 0.429 ± 0.009 mPa·s; mass density ([2]; 328.15 K): 1023.03 ± 2.5 kg/m3
